Experiment [1] has as its system Marchantia polymorpha spores. As to conditions: (180 μg/L) for 7dd; cited from earlier work.
In the next experiment the test system is Tomato plants. The following applies: in vivo; cited from earlier work.
A further experiment concerns Potato somatic cells. As to conditions: cited from earlier work.
The next experiment deals with banana ECS. Kind of experiment: CSF selection of embryos from Agrobacterium-transformed banana ECS. The format is cell-based. As to conditions: after 3 months. The protocol:
Agrobacterium tumefaciens AGL1 carrying the binary plasmids pMol_0628, pMol_0630, and pMol_0632 were streaked from glycerol in LB solid medium supplemented with rifampicin 50 mg/L, kanamycin 100 mg/L and carbenicillin 50 mg/L and incubated at 28° C. for 2 days. On the second day, the bacteria were inoculated in MG/L medium (discussed in Sarkar et al., Methods Mol Biol. 2013; 966: 187-204) supplemented with the same antibiotics and incubated overnight at 28° C. Next day, the cultures were spun down at 4000 rpm for 10 min to pellet the cells and after they were resuspended in ABIM (Agrobacterium induction media; discussed in Sarkar et al., Methods Mol Biol. 2013; 966: 187-204) to induce virulence and incubated overnight in the dark at room temperature. The OD600 of the bacteria was measured using NanoDrop2000 and normalised to 0.6 in CS liquid media supplemented with acetosyringone (100 μM).
Banana ECS with 2/3 day-old cells was pelleted and resuspended in CS medium. 0.5 mL of the suspension (approximately 0.1 mL of ECS) was split according to the number of transformations into small Eppendorf tubes. The cells were incubated at 45° C. for 5 min and after they were incubated at room temperature for another 5 min. Then, 1 mL of agrobacterium suspension was added to each banana ECS sample. […]

The next experiment relates to banana rooting plantlets. Kind of experiment: CSF kill curves in banana rooting plantlets (in medium, spraying, both). The format is in vivo. How it is done: The effect of CSF was also evaluated in rooting plantlets. Three methods were tested, (i) incorporation of CSF in the rooting medium (RM), (ii) spraying the plantlets with CSF solution and (iii) incorporation in the media of a lower concentration of CSF (0.5 mg/L) and spraying the plantlets (concurrently).
Six CSF concentrations, 0, 0.05, 0.5, 5, 50 and 100 mg/L, were tested in rooting plantlets.
Rooting banana plantlets were cleared of roots and split from the corm to have single shoots for testing with RM medium with or without CSF. Five to six shoots with similar morphology were inoculated into each phytotray.
For spraying tests, CSF solutions (concentrations above) were prepared in sterile deionised water or in 0.015% Silwett L-77. One mL of solution was sprayed onto each phytotray (five shoots per phytotray, so 1 mL between five shoots). For control conditions (Omg/L CSF), 1 mL of deionised water was used.
A range of CSF concentrations (0, 0.05, 0.5, 5, 50, 100 mg/L) were tested in banana rooting shoots. Banana shoots were separated from roots and split to give single shoots that were inoculated into new media to determine the effect of CSF over a month of exposure. To assess the effectiveness of CSF in banana three approaches were tested: (i) incorporation of the toxin in RM medium, (ii) spraying the shoots, and (iii) spraying the shoots plus incorporation of a small amount of CSF […] in RM.

Each structure is given as a SMILES string.

Take `COc1nc(C)nc(NC(=O)NS(=O)(=O)c2ccccc2Cl)n1` [CSF, chlorsulfuron]: the “CSF concentration reported to be effective” value is 0.5 µM in experiment [1], 3.6 µg/L with Tomato plants and 20 µg/L with Potato somatic cells. Also, the “Embryos, untransformed cells” value in the experiment on banana ECS (CSF 25 μg/L) and in the experiment with banana ECS (CSF 50 μg/L) was “No” in each case. Besides, the Severity of symptoms entry with banana rooting plantlets (0.05 mg/L CSF in the medium plus spraying with CSF) was “an increase in the severity of symptoms”. The Root development entry with banana rooting plantlets (CSF in medium, even at 0.05 mg/L) is reported as “root development was not observed”. Also, the “Effective CSF concentration added to the medium (plantlets did not develop, chlorotic phenotype)” value in the experiment on banana rooting plantlets (CSF incorporated in RM medium, repeated 3 times) was 0.5 mg/L. Also, the “Lowest concentration that delayed shoot development” value with banana rooting plantlets (spraying banana shoots) was determined as 5 mg/L. For the same molecule, the Shoot development result with banana rooting plantlets (weekly spraying with 0.5 mg/L CSF) is “quite effective at delaying banana shoot development”.

The values are drawn from patent US20250034586A1, “METHOD FOR EDITING BANANA GENES” (Tropic Biosciences UK Limited, priority 2021, published 2025).
